The compounds below were run on T-cell leukemia cell line Jurkat (assay: Cell viability assay (Cell Counting Kit-8), Jurkat). Conditions: Homo sapiens, 72 hours, CCK-8, absorbance 450 nm.
Type: cell-based
Experimental: To evaluate the cytotoxicity of the compounds synthesized in the Preparation Examples against cancer cells, a cell viability assay following treatment with the synthesized compounds was performed using a T-cell leukemia cell line Jurkat (KCLB, Cat# 40152), a human acute monocytic leukemia cell line MV-4-11 (ATCC, Cat# CRL-9591), and a human multiple myeloma cell line MM.1S (ATCC, Cat# CRL-2974).
As a culture medium for the cell lines, an RPMI medium containing 10 % heat-inactivated FBS and 1 % penicillin/streptomycin (P/S) antibiotics was used. The culture medium was stored refrigerated and warmed in a 37 °C water bath before use. Each cell line was used for the test after a stabilization period of at least 2 weeks after thawing, and cell culture was performed based on information provided by the cell line manufacturer regarding the thawing and subculture conditions.
The Jurkat, MV-4-11, or MM.1S cell line was seeded in a 96-well plate at a density of 1 × 10^4 cells/well and incubated in a 37 °C CO2 incubator overnight. After incubation, a prepared test compound was applied to each cell line, and the cells were incubated in a 37 °C CO2 incubator for 72 hours. After 72 hours of incubation, a Cell Counting Kit-8 (Dojindo, Cat# CK04-20) reagent was added, and the cells were incubated in a 37 °C CO2 incubator. Then, the absorbance was measured at 450 nm using a SpectraMax M3 Microplate Reader (N=2, duplicate measurement). The evaluation concentrations for evaluating the cytotoxicity of the compounds were 10 points: 100 µM, 20 µM, 4 µM, 0.8 µM, 0.16 µM, 0.032 µM, 0.0064 µM, 0.00128 µM, 0.000256 µM, and 0 µM, and the test was performed at 2 wells/concentration point (n=2). A GI50 was derived using a GraphPad Prism program.
Compound `O=C1CCC(N2Cc3cc(C(=O)c4c[nH]c5ccc(Cl)cc45)ccc3C2=O)C(=O)N1` (stereo not shown) [Compound 8, 3-(5-(5-chloro-1H-indole-3-carbonyl)-1-oxoisoindolin-2-yl)piperidine-2,6-dione] has a GI50 of at most 100 nM.
`O=C1CCC(N2Cc3cc(C(=O)c4cn(Cc5ccccc5)c5ccccc45)ccc3C2=O)C(=O)N1` (stereo not shown) [Compound 32, 3-(5-(1-benzyl-1H-indole-3-carbonyl)-1-oxoisoindolin-2-yl)piperidine-2.6-dione] was tested, and the GI50 was 100 to 1000 nM.
Compound `O=C1CCC(N2Cc3cc(C(=O)C4CCCC4)ccc3C2=O)C(=O)N1` (stereo not shown) [Compound 39, 3-(5-(cyclopentanecarbonyl)-1-oxoisoindolin-2-yl)piperidine-2,6-dione] has a GI50 of 1000 to 10000 nM.
`O=C1CCC(N2Cc3cc(C(=O)c4ccc(F)cc4)ccc3C2=O)C(=O)N1` (stereo not shown) [Compound 40, 3-(5-(4-fluorobenzoyl)-1-oxoisoindolin-2-yl)piperidine-2,6-dione] was tested, and the GI50 was 100 to 1000 nM.
With `O=C1CCC(N2Cc3cc(C(=O)c4ccc(N5CCCCC5)cc4)ccc3C2=O)C(=O)N1` (stereo not shown) [Compound 41, 3-(1-oxo-5-(4-(piperidin-1-yl)benzoyl)isoindolin-2-yl)piperidine-2,6-dione] the GI50 was 100 to 1000 nM.
In the case of `O=C1CCC(N2Cc3cc(C(=O)c4cccc5ccccc45)ccc3C2=O)C(=O)N1` (stereo not shown) [Compound 43, 3-(5-(1-naphthoyl)-1-oxoisoindolin-2-yl)piperidine-2,6-dione], the GI50 is reported as 1000 to 10000 nM.
`O=C1CCC(N2Cc3cc(C(=O)c4ccc(OC(F)(F)F)cc4)ccc3C2=O)C(=O)N1` (stereo not shown) [Compound 45, 3-(1-oxo-5-(4-(trifluoromethoxy)benzoyl)isoindolin-2-yl)piperidine-2,6-dione] showed a GI50 of 100 to 1000 nM.
For `O=C1CCC(N2Cc3cc(C(=O)c4ccc(Cl)cc4)ccc3C2=O)C(=O)N1` (stereo not shown) [Compound 48, 3-(5-(4-chlorobenzoyl)-1-oxoisoindolin-2-yl)piperidine-2,6-dione], the GI50 was 100 to 1000 nM.
For `O=C1CCC(N2Cc3cc(C(=O)c4ccc(C(F)(F)F)cc4)ccc3C2=O)C(=O)N1` (stereo not shown) [Compound 50, 3-(1-oxo-5-(4-(trifluoromethyl)benzoyl)isoindolin-2-yl)piperidine-2,6-dione], the GI50 was 100 to 1000 nM.
Work on `COc1ccc(C(=O)c2ccc3c(c2)CN(C2CCC(=O)NC2=O)C3=O)cc1` (stereo not shown) [Compound 51, 3-(5-(4-methoxybenzoyl)-1-oxoisoindolin-2-yl)piperidine-2,6-dione] yielded a GI50 of 100 to 1000 nM.
`O=C1CCC(N2Cc3cc(C(=O)c4ccc(OCc5ccccc5)cc4)ccc3C2=O)C(=O)N1` (stereo not shown) [Compound 53, 3-(5-(4-(benzyloxy)benzoyl)-1-oxoisoindolin-2-yl)piperidine-2,6-dione] was tested, and the GI50 was 100 to 1000 nM.
Compound `Cc1ccc(C(=O)c2ccc3c(c2)CN(C2CCC(=O)NC2=O)C3=O)cc1` (stereo not shown) [Compound 54, 3-(5-(4-methylbenzoyl)-1-oxoisoindolin-2-yl)piperidine-2,6-dione] has a GI50 of 100 to 1000 nM.
With `Cc1cccc(C(=O)c2ccc3c(c2)CN(C2CCC(=O)NC2=O)C3=O)c1` (stereo not shown) [Compound 61, 3-(5-(3-methylbenzoyl)-1-oxoisoindolin-2-yl)piperidine-2,6-dione] the GI50 was at most 100 nM.
`Nc1ccc(C(=O)c2ccc3c(c2)CN(C2CCC(=O)NC2=O)C3=O)cc1` (stereo not shown) [Compound 64, 3-(5-(4-aminobenzoyl)-1-oxoisoindolin-2-yl)piperidine-2,6-dione] gave a GI50 of 100 to 1000 nM.
With `O=C1CCC(N2Cc3cc(C(=O)c4ccc[nH]4)ccc3C2=O)C(=O)N1` (stereo not shown) [Compound 73, 3-(1-oxo-5-(1H-pyrrole-2-carbonyl)isoindolin-2-yl)piperidine-2,6-dione] the GI50 was at most 100 nM.
Compound `O=C1CCC(N2Cc3cc(C(=O)c4ccc5ncsc5c4)ccc3C2=O)C(=O)N1` (stereo not shown) [Compound 76, 3-(5-(benzo[d]thiazole-6-carbonyl)-1-oxoisoindolin-2-yl)piperidine-2,6-dione] has a GI50 of at most 100 nM.

Source: patent EP4813977A1, “NOVEL COMPOUND AND USE THEREOF” (Protier Biotech Inc., priority 2023, dated 2025)
